Measured values taken from publication PMC8037182, “Solvothermal Synthesis of Multiple Dihydropyrimidinones at a Time as Inhibitors of Eg5” (Molecules, 2021).

Experiments:
Caco-2 cell line = experiment: Cytotoxicity MTS assay, Caco-2 cell line; format: cell-based; conditions: for OD490 Mean / OD490 Well 1 / OD490 Well 2 / OD490 Well 3: Caco-2 cell line
How it was run: (§1)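 IC50 reflects non-linear regression of percent cell viability on compound concentration, tested from 0.5 to 100 µM final during a 24 h exposure. Viability was read by MTS at 490 nm; monastrol served as positive control and 0.025% DMSO as blank.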

Hela cell line = experiment: Cytotoxicity MTS assay, Hela cell line; format: cell-based; conditions: for OD490 value, Mean / OD490 value, Well 1 / OD490 value, Well 2 / OD490 value, Well 3: Hela cell line, MTS;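 as to OD490 value, Mean: blank control wells received 0.025% DMSO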;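 as to OD490 value, Well 1: blank control wells received 0.025% DMSO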;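 as to OD490 value, Well 2: blank control wells received 0.025% DMSO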;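 as to OD490 value, Well 3: blank control wells received 0.025% DMSO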
How it was run: as §1

For `CCOC(=O)c1c(C2NC(=O)NC(C)=C2C(=O)Nc2ccccc2C)[nH]c(C(=O)OC)c1C` (centres unmarked) [D2], the “OD490 Mean” value (Caco-2 cell line; 0.5μM, first assay) was 0.6270, the “OD490 Well 1” value (Caco-2 cell line; 0.5μM, first assay) was 0.5887 and the “OD490 Well 2” value (Caco-2 cell line; 0.5μM, first assay) was 0.6362. For the same compound, the “OD490 Well 3” value (Caco-2 cell line; 0.5μM, first assay) was 0.6562, the “OD490 Mean” value (Caco-2 cell line; 0.5μM, second assay) was 0.7070 and the “OD490 Well 1” value (Caco-2 cell line; 0.5μM, second assay) was 0.7084. For the same compound, the “OD490 Well 2” value (Caco-2 cell line; 0.5μM, second assay) was 0.7002, the “OD490 Well 3” value (Caco-2 cell line; 0.5μM, second assay) was 0.7123 and the “OD490 Mean” value (Caco-2 cell line; 0.5μM, third assay) was 0.6851. For the same compound, the “OD490 Well 1” value (Caco-2 cell line; 0.5μM, third assay) was 0.4885, the “OD490 Well 2” value (Caco-2 cell line; 0.5μM, third assay) was 0.8254 and the “OD490 Well 3” value (Caco-2 cell line; 0.5μM, third assay) was 0.7414. The “OD490 Mean” value (Caco-2 cell line; 1μM, first assay) was 0.6349, the “OD490 Well 1” value (Caco-2 cell line; 1μM, first assay) was 0.5288 and the “OD490 Well 2” value (Caco-2 cell line; 1μM, first assay) was 0.6946. The “OD490 Well 3” value (Caco-2 cell line; 1μM, first assay) was 0.6813, the “OD490 Mean” value (Caco-2 cell line; 1μM, second assay) was 0.7459 and the “OD490 Well 1” value (Caco-2 cell line; 1μM, second assay) was 0.7813. The “OD490 Well 2” value (Caco-2 cell line; 1μM, second assay) was 0.6848, the “OD490 Well 3” value (Caco-2 cell line; 1μM, second assay) was 0.7716 and the “OD490 Mean” value (Caco-2 cell line; 1μM, third assay) was 0.6746. For the same compound, the “OD490 Well 1” value (Caco-2 cell line; 1μM, third assay) was 0.6245, the “OD490 Well 2” value (Caco-2 cell line; 1μM, third assay) was 0.7010 and the “OD490 Well 3” value (Caco-2 cell line; 1μM, third assay) was 0.6982. The “OD490 Mean” value (Caco-2 cell line; 10μM, first assay) was 0.6116, the “OD490 Well 1” value (Caco-2 cell line; 10μM, first assay) was 0.5314 and the “OD490 Well 2” value (Caco-2 cell line; 10μM, first assay) was 0.6140. For the same compound, the “OD490 Well 3” value (Caco-2 cell line; 10μM, first assay) was 0.6893, the “OD490 Mean” value (Caco-2 cell line; 10μM, second assay) was 0.7407 and the “OD490 Well 1” value (Caco-2 cell line; 10μM, second assay) was 0.7116. The “OD490 Well 2” value (Caco-2 cell line; 10μM, second assay) was 0.7395, the “OD490 Well 3” value (Caco-2 cell line; 10μM, second assay) was 0.771 and the “OD490 Mean” value (Caco-2 cell line; 10μM, third assay) was 0.6639. The “OD490 Well 1” value (Caco-2 cell line; 10μM, third assay) was 0.7421, the “OD490 Well 2” value (Caco-2 cell line; 10μM, third assay) was 0.5621 and the “OD490 Well 3” value (Caco-2 cell line; 10μM, third assay) was 0.6874. For the same compound, the “OD490 Mean” value (Caco-2 cell line; 25μM, first assay) was 0.6114, the “OD490 Well 1” value (Caco-2 cell line; 25μM, first assay) was 0.5587 and the “OD490 Well 2” value (Caco-2 cell line; 25μM, first assay) was 0.6570. For the same compound, the “OD490 Well 3” value (Caco-2 cell line; 25μM, first assay) was 0.6185, the “OD490 Mean” value (Caco-2 cell line; 25μM, second assay) was 0.6775 and the “OD490 Well 1” value (Caco-2 cell line; 25μM, second assay) was 0.5825. For the same compound, the “OD490 Well 2” value (Caco-2 cell line; 25μM, second assay) was 0.7137, the “OD490 Well 3” value (Caco-2 cell line; 25μM, second assay) was 0.7364 and the “OD490 Mean” value (Caco-2 cell line; 25μM, third assay) was 0.6183. For the same compound, the “OD490 Well 1” value (Caco-2 cell line; 25μM, third assay) was 0.6214, the “OD490 Well 2” value (Caco-2 cell line; 25μM, third assay) was 0.6325 and the “OD490 Well 3” value (Caco-2 cell line; 25μM, third assay) was 0.6010. For the same compound, the “OD490 Mean” value (Caco-2 cell line; 50μM, first assay) was 0.5907, the “OD490 Well 1” value (Caco-2 cell line; 50μM, first assay) was 0.6013 and the “OD490 Well 2” value (Caco-2 cell line; 50μM, first assay) was 0.6084. The “OD490 Well 3” value (Caco-2 cell line; 50μM, first assay) was 0.5625, the “OD490 Mean” value (Caco-2 cell line; 50μM, second assay) was 0.5350 and the “OD490 Well 1” value (Caco-2 cell line; 50μM, second assay) was 0.5688. The “OD490 Well 2” value (Caco-2 cell line; 50μM, second assay) was 0.5038, the “OD490 Well 3” value (Caco-2 cell line; 50μM, second assay) was 0.5324 and the “OD490 Mean” value (Caco-2 cell line; 50μM, third assay) was 0.5761. For the same compound, the “OD490 Well 1” value (Caco-2 cell line; 50μM, third assay) was 0.6025, the “OD490 Well 2” value (Caco-2 cell line; 50μM, third assay) was 0.5936 and the “OD490 Well 3” value (Caco-2 cell line; 50μM, third assay) was 0.5321. For the same compound, the “OD490 Mean” value (Caco-2 cell line; 100μM, first assay) was 0.4815, the “OD490 Well 1” value (Caco-2 cell line; 100μM, first assay) was 0.4762 and the “OD490 Well 2” value (Caco-2 cell line; 100μM, first assay) was 0.4852. For the same compound, the “OD490 Well 3” value (Caco-2 cell line; 100μM, first assay) was 0.4831, the “OD490 Mean” value (Caco-2 cell line; 100μM, second assay) was 0.5288 and the “OD490 Well 1” value (Caco-2 cell line; 100μM, second assay) was 0.5278. For the same compound, the “OD490 Well 2” value (Caco-2 cell line; 100μM, second assay) was 0.5253, the “OD490 Well 3” value (Caco-2 cell line; 100μM, second assay) was 0.5332 and the “OD490 Mean” value (Caco-2 cell line; 100μM, third assay) was 0.5185. For the same compound, the “OD490 Well 1” value (Caco-2 cell line; 100μM, third assay) was 0.5637, the “OD490 Well 2” value (Caco-2 cell line; 100μM, third assay) was 0.4985 and the “OD490 Well 3” value (Caco-2 cell line; 100μM, third assay) was 0.4932. For the same compound, the IC50 (Caco-2 cell line; MTS assay, 24 h exposure) was 116 µM, the “OD490 value, Mean” value (Hela cell line; 0.5μM, first assay) was 2.6241 and the “OD490 value, Well 1” value (Hela cell line; 0.5μM, first assay) was 2.6512. For the same compound, the “OD490 value, Well 2” value (Hela cell line; 0.5μM, first assay) was 2.7230, the “OD490 value, Well 3” value (Hela cell line; 0.5μM, first assay) was 2.4982 and the “OD490 value, Mean” value (Hela cell line; 0.5μM, second assay) was 2.6365. For the same compound, the “OD490 value, Well 1” value (Hela cell line; 0.5μM, second assay) was 2.7038, the “OD490 value, Well 2” value (Hela cell line; 0.5μM, second assay) was 2.6687 and the “OD490 value, Well 3” value (Hela cell line; 0.5μM, second assay) was 2.5371. For the same compound, the “OD490 value, Mean” value (Hela cell line; 0.5μM, third assay) was 2.6753, the “OD490 value, Well 1” value (Hela cell line; 0.5μM, third assay) was 2.5959 and the “OD490 value, Well 2” value (Hela cell line; 0.5μM, third assay) was 2.8645. For the same compound, the “OD490 value, Well 3” value (Hela cell line; 0.5μM, third assay) was 2.5656, the “OD490 value, Mean” value (Hela cell line; 1μM, first assay) was 2.5821 and the “OD490 value, Well 1” value (Hela cell line; 1μM, first assay) was 2.5465. The “OD490 value, Well 2” value (Hela cell line; 1μM, first assay) was 2.6265, the “OD490 value, Well 3” value (Hela cell line; 1μM, first assay) was 2.5734 and the “OD490 value, Mean” value (Hela cell line; 1μM, second assay) was 2.6167. For the same compound, the “OD490 value, Well 1” value (Hela cell line; 1μM, second assay) was 2.6874, the “OD490 value, Well 2” value (Hela cell line; 1μM, second assay) was 2.5987 and the “OD490 value, Well 3” value (Hela cell line; 1μM, second assay) was 2.5641. For the same compound, the “OD490 value, Mean” value (Hela cell line; 1μM, third assay) was 2.6782, the “OD490 value, Well 1” value (Hela cell line; 1μM, third assay) was 2.5645 and the “OD490 value, Well 2” value (Hela cell line; 1μM, third assay) was 2.7848. For the same compound, the “OD490 value, Well 3” value (Hela cell line; 1μM, third assay) was 2.6854, the “OD490 value, Mean” value (Hela cell line; 10μM, first assay) was 2.6025 and the “OD490 value, Well 1” value (Hela cell line; 10μM, first assay) was 2.4718. For the same compound, the “OD490 value, Well 2” value (Hela cell line; 10μM, first assay) was 2.7280, the “OD490 value, Well 3” value (Hela cell line; 10μM, first assay) was 2.6077 and the “OD490 value, Mean” value (Hela cell line; 10μM, second assay) was 2.7525. The “OD490 value, Well 1” value (Hela cell line; 10μM, second assay) was 2.8301, the “OD490 value, Well 2” value (Hela cell line; 10μM, second assay) was 2.6874 and the “OD490 value, Well 3” value (Hela cell line; 10μM, second assay) was 2.7401. For the same compound, the “OD490 value, Mean” value (Hela cell line; 10μM, third assay) was 2.6780, the “OD490 value, Well 1” value (Hela cell line; 10μM, third assay) was 2.5659 and the “OD490 value, Well 2” value (Hela cell line; 10μM, third assay) was 2.6898. For the same compound, the “OD490 value, Well 3” value (Hela cell line; 10μM, third assay) was 2.7784, the “OD490 value, Mean” value (Hela cell line; 25μM, first assay) was 2.6414 and the “OD490 value, Well 1” value (Hela cell line; 25μM, first assay) was 2.4669. For the same compound, the “OD490 value, Well 2” value (Hela cell line; 25μM, first assay) was 2.6653, the “OD490 value, Well 3” value (Hela cell line; 25μM, first assay) was 2.7919 and the “OD490 value, Mean” value (Hela cell line; 25μM, second assay) was 2.6474. The “OD490 value, Well 1” value (Hela cell line; 25μM, second assay) was 2.8835, the “OD490 value, Well 2” value (Hela cell line; 25μM, second assay) was 2.4699 and the “OD490 value, Well 3” value (Hela cell line; 25μM, second assay) was 2.5888. The “OD490 value, Mean” value (Hela cell line; 25μM, third assay) was 2.6061, the “OD490 value, Well 1” value (Hela cell line; 25μM, third assay) was 2.5656 and the “OD490 value, Well 2” value (Hela cell line; 25μM, third assay) was 2.6632. The “OD490 value, Well 3” value (Hela cell line; 25μM, third assay) was 2.5894, the “OD490 value, Mean” value (Hela cell line; 50μM, first assay) was 2.6499 and the “OD490 value, Well 1” value (Hela cell line; 50μM, first assay) was 2.7237. For the same compound, the “OD490 value, Well 2” value (Hela cell line; 50μM, first assay) was 2.5642, the “OD490 value, Well 3” value (Hela cell line; 50μM, first assay) was 2.6617 and the “OD490 value, Mean” value (Hela cell line; 50μM, second assay) was 2.5211. The “OD490 value, Well 1” value (Hela cell line; 50μM, second assay) was 2.6654, the “OD490 value, Well 2” value (Hela cell line; 50μM, second assay) was 2.5656 and the “OD490 value, Well 3” value (Hela cell line; 50μM, second assay) was 2.3324. The “OD490 value, Mean” value (Hela cell line; 50μM, third assay) was 2.6330, the “OD490 value, Well 1” value (Hela cell line; 50μM, third assay) was 2.6547 and the “OD490 value, Well 2” value (Hela cell line; 50μM, third assay) was 2.5655. The “OD490 value, Well 3” value (Hela cell line; 50μM, third assay) was 2.6788, the “OD490 value, Mean” value (Hela cell line; 100μM, first assay) was 1.9886 and the “OD490 value, Well 1” value (Hela cell line; 100μM, first assay) was 2.0164. The “OD490 value, Well 2” value (Hela cell line; 100μM, first assay) was 1.9699, the “OD490 value, Well 3” value (Hela cell line; 100μM, first assay) was 1.9794 and the “OD490 value, Mean” value (Hela cell line; 100μM, second assay) was 2.0267. The “OD490 value, Well 1” value (Hela cell line; 100μM, second assay) was 1.8863, the “OD490 value, Well 2” value (Hela cell line; 100μM, second assay) was 1.9925 and the “OD490 value, Well 3” value (Hela cell line; 100μM, second assay) was 2.2014. For the same compound, the “OD490 value, Mean” value (Hela cell line; 100μM, third assay) was 2.0032, the “OD490 value, Well 1” value (Hela cell line; 100μM, third assay) was 1.9987 and the “OD490 value, Well 2” value (Hela cell line; 100μM, third assay) was 2.0123. The “OD490 value, Well 3” value (Hela cell line; 100μM, third assay) was 1.9986 and the IC50 (Hela cell line; MTS assay, 24 h exposure) was over 150 µM.
